# Laboratory results as given in ChEMBL document CHEMBL1201862, “PubChem BioAssay data set” (2004).
#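 Tested at 5 concentrations; 48 h exposure; 96-well plates; endpoints linearly interpolated, else capped at highest concentration. Here, GI50 denotes the concentration required for 50% inhibition of growth.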 Active and inactive are the calls of the source. Rule as the data show it: active = GI50 up to about 1.1 µM and inactive = higher.
# Experiments:
# Test in all cases: growth of human tumour cells (NCI), 48 h
# A549 = system: A549
# COLO 205 = system: COLO 205
# DU-145 = system: DU-145
# HCC 2998 = system: HCC 2998
# HT-29 = system: HT-29
# IGROV-1 = system: IGROV-1
# MCF7 = system: MCF7
# MDA-MB-435 = system: MDA-MB-435
# Malme-3M = system: Malme-3M
# NCI-H23 = system: NCI-H23
# NCI-H522 = system: NCI-H522
# NCI/ADR-RES = system: NCI/ADR-RES
# OVCAR-5 = system: OVCAR-5
# OVCAR-8 = system: OVCAR-8
# PC-3 = system: PC-3
# RXF 393 = system: RXF 393
# SF-295 = system: SF-295
# SF-539 = system: SF-539
# SK-MEL-5 = system: SK-MEL-5
# UACC-62 = system: UACC-62
SMILES,GI50 (A549),GI50 (COLO 205),GI50 (DU-145),GI50 (HCC 2998),GI50 (HT-29),GI50 (IGROV-1),GI50 (MCF7),GI50 (MDA-MB-435),GI50 (Malme-3M),GI50 (NCI-H23),GI50 (NCI-H522),GI50 (NCI/ADR-RES),GI50 (OVCAR-5),GI50 (OVCAR-8),GI50 (PC-3),GI50 (RXF 393),GI50 (SF-295),GI50 (SF-539),GI50 (SK-MEL-5),GI50 (UACC-62)
C/C(=N\NC(=O)c1ccncc1)c1ccc2ccccc2c1O,1.77 µM (inactive),0.561 µM (active),2.25 µM (inactive),2.9 µM (inactive),0.498 µM (active),2.29 µM (inactive),1.35 µM (inactive),8.99 µM (inactive),1.19 µM (inactive),3.82 µM (inactive),0.869 µM (active),1.87 µM (inactive),6.12 µM (inactive),2.18 µM (inactive),5.6 µM (inactive),3.08 µM (inactive),1.77 µM (inactive),1.46 µM (inactive),1.67 µM (inactive),2.19 µM (inactive)
O=c1cc(-c2ccccc2)nc2[nH]ccn12,> 10 µM (inactive),> 10 µM (inactive),> 10 µM (inactive),> 10 µM (inactive),> 10 µM (inactive),> 10 µM (inactive),> 10 µM (inactive),> 10 µM (inactive),> 10 µM (inactive),> 10 µM (inactive),> 10 µM (inactive),> 10 µM (inactive),> 10 µM (inactive),> 10 µM (inactive),> 10 µM (inactive),> 10 µM (inactive),> 10 µM (inactive),> 10 µM (inactive),> 10 µM (inactive),> 10 µM (inactive)
N=C1/C(=C/c2ccc(F)cc2)C(=O)N=C2SC=NN12,> 100 µM (inactive),> 100 µM (inactive),> 100 µM (inactive),> 100 µM (inactive),> 100 µM (inactive),> 100 µM (inactive),> 100 µM (inactive),83.4 µM (inactive),> 100 µM (inactive),> 100 µM (inactive),> 100 µM (inactive),> 100 µM (inactive),> 100 µM (inactive),> 100 µM (inactive),> 100 µM (inactive),31.5 µM (inactive),> 100 µM (inactive),> 100 µM (inactive),62.5 µM (inactive),87.9 µM (inactive)
Cc1ccc(C(=O)N/N=C2/C(=O)c3c4ccccc4cc4cccc2c34)cc1,32.4 µM (inactive),31.3 µM (inactive),3.44 µM (inactive),38.8 µM (inactive),21.6 µM (inactive),15.8 µM (inactive),2.3 µM (inactive),23.9 µM (inactive),18.8 µM (inactive),24.6 µM (inactive),18 µM (inactive),30.1 µM (inactive),> 70 µM (inactive),22.4 µM (inactive),25.3 µM (inactive),12.6 µM (inactive),19.5 µM (inactive),15.5 µM (inactive),27.5 µM (inactive),26.9 µM (inactive)
COc1ccc2c(c1)CCCN1Cc3cc(OC)c(OC)cc3CC21 (stereo not given),> 100 µM (inactive),51.1 µM (inactive),> 100 µM (inactive),15.8 µM (inactive),28.1 µM (inactive),22.1 µM (inactive),> 100 µM (inactive),> 100 µM (inactive),> 100 µM (inactive),> 100 µM (inactive),75.5 µM (inactive),> 100 µM (inactive),> 100 µM (inactive),> 100 µM (inactive),> 100 µM (inactive),25.6 µM (inactive),> 100 µM (inactive),81.8 µM (inactive),37.8 µM (inactive),86.3 µM (inactive)
COc1ccc(-c2c(-c3ccccc3)c(C)nc3[nH]c(=S)[nH]c(=S)c23)cc1OC,30.3 µM (inactive),25.3 µM (inactive),44.4 µM (inactive),37.6 µM (inactive),41 µM (inactive),36.3 µM (inactive),33.8 µM (inactive),26.9 µM (inactive),30.8 µM (inactive),47.4 µM (inactive),27.1 µM (inactive),40.4 µM (inactive),64.4 µM (inactive),42 µM (inactive),25.1 µM (inactive),35.8 µM (inactive),42.1 µM (inactive),19.8 µM (inactive),28.1 µM (inactive),16.1 µM (inactive)
Cc1ccc(P(c2ccc(C)cc2)c2ccc(C)cc2)cc1,14.6 µM (inactive),14.5 µM (inactive),16.5 µM (inactive),16.1 µM (inactive),19.4 µM (inactive),18.8 µM (inactive),31.3 µM (inactive),19.1 µM (inactive),18.3 µM (inactive),27.9 µM (inactive),11.4 µM (inactive),27.5 µM (inactive),21.3 µM (inactive),18 µM (inactive),30.6 µM (inactive),15.5 µM (inactive),21.4 µM (inactive),21.6 µM (inactive),16.6 µM (inactive),21.6 µM (inactive)
C=C(Br)C(C)(Cl)CCC(Br)C(C)(C)Cl (stereo not given),36.1 µM (inactive),27 µM (inactive),> 100 µM (inactive),> 100 µM (inactive),34.6 µM (inactive),77.3 µM (inactive),55.3 µM (inactive),28.4 µM (inactive),23.4 µM (inactive),41.9 µM (inactive),40.5 µM (inactive),72.1 µM (inactive),56.4 µM (inactive),64.1 µM (inactive),39.4 µM (inactive),24.7 µM (inactive),34.8 µM (inactive),74.8 µM (inactive),34.2 µM (inactive),86.9 µM (inactive)
O=c1c2c3c(sc2nc2n1N=C(c1ccc([N+](=O)[O-])cc1)CS2)CCCC3,> 100 µM (inactive),> 100 µM (inactive),> 100 µM (inactive),> 100 µM (inactive),> 100 µM (inactive),> 100 µM (inactive),> 100 µM (inactive),> 100 µM (inactive),> 100 µM (inactive),> 100 µM (inactive),> 100 µM (inactive),> 100 µM (inactive),> 100 µM (inactive),> 100 µM (inactive),> 100 µM (inactive),> 100 µM (inactive),> 100 µM (inactive),> 100 µM (inactive),> 100 µM (inactive),> 100 µM (inactive)
Cc1c(N(C)C)ccc2c(=O)c3cccc(CC(=O)O)c3oc12,> 100 µM (inactive),> 100 µM (inactive),> 100 µM (inactive),> 100 µM (inactive),> 100 µM (inactive),> 100 µM (inactive),> 100 µM (inactive),> 100 µM (inactive),> 100 µM (inactive),> 100 µM (inactive),> 100 µM (inactive),> 100 µM (inactive),> 100 µM (inactive),> 100 µM (inactive),> 100 µM (inactive),> 100 µM (inactive),> 100 µM (inactive),> 100 µM (inactive),> 75.3 µM (inactive),> 100 µM (inactive)
